Reference: patent US8470888B2, “Botryllamides and method of inhibiting PGP in a mammal afflicted with cancer” (The United States of America, as represented by the …, priority 2008, dated 2013)

Key:
Format in all cases: cell-based
[1] = biological target: ABCG2 (Homo sapiens (Human), UniProt Q9UNQ0); assay: Pheophorbide a accumulation assay for ABCG2 inhibitors in NCI-H460/MX20 cells; conditions: for IC50: 1 μM pheophorbide a, 18 h; for Pheophorbide a max activity, % of FTC response: normalized to 10 μM FTC
Procedure: Accumulation of pheophorbide a, a fluorescent ABCG2 substrate (Jonker et al., Proc. Natl. Acad. Sci. USA, 99: 15649-54 (2002) and Robey et al., Cancer Res., 64: 1242-6 (2004)), formed the basis of the assay for inhibitors of ABCG2 activity (Henrich et al., J. Biomol. Screen, 11: 176-83 (2006)). Briefly, NCI-H460/MX20 cells are transferred to black wall, clear bottom 384-well polylysine-coated assay plates (Corning, Corning, N.Y.) and allowed to attach for several hours. Pheophorbide a (1 μM final concentration) is added immediately followed by compounds or vehicle (DMSO/PBS) control and incubated an additional 18 h. After removal of medium and washing with PBS containing Ca^2+ and Mg^2+, fluorescence intensity is read on a Tecan Safire fluorescence plate reader in bottom read mode, 395 nm excitation, and 670 nm emission. Each plate has control wells containing 10 μM (final concentration) FTC. Data are normalized to FTC and reported as % of FTC fluorescence.

[2] = biological target: MRP1 (Homo sapiens (Human), UniProt P33527); assay: Flow assay, calcein efflux in transfected HEK293 cells expressing MRP1; conditions: 10 μM compound; 200 nM calcein AM
[3] = biological target: Pgp (Homo sapiens (Human), UniProt P08183); assay: Flow assay, rhodamine 123 efflux in transfected HEK293 cells expressing Pgp; conditions: 10 μM compound; 0.5 μg/ml rhodamine 123
Pgp, sequence (P08183 whole entry): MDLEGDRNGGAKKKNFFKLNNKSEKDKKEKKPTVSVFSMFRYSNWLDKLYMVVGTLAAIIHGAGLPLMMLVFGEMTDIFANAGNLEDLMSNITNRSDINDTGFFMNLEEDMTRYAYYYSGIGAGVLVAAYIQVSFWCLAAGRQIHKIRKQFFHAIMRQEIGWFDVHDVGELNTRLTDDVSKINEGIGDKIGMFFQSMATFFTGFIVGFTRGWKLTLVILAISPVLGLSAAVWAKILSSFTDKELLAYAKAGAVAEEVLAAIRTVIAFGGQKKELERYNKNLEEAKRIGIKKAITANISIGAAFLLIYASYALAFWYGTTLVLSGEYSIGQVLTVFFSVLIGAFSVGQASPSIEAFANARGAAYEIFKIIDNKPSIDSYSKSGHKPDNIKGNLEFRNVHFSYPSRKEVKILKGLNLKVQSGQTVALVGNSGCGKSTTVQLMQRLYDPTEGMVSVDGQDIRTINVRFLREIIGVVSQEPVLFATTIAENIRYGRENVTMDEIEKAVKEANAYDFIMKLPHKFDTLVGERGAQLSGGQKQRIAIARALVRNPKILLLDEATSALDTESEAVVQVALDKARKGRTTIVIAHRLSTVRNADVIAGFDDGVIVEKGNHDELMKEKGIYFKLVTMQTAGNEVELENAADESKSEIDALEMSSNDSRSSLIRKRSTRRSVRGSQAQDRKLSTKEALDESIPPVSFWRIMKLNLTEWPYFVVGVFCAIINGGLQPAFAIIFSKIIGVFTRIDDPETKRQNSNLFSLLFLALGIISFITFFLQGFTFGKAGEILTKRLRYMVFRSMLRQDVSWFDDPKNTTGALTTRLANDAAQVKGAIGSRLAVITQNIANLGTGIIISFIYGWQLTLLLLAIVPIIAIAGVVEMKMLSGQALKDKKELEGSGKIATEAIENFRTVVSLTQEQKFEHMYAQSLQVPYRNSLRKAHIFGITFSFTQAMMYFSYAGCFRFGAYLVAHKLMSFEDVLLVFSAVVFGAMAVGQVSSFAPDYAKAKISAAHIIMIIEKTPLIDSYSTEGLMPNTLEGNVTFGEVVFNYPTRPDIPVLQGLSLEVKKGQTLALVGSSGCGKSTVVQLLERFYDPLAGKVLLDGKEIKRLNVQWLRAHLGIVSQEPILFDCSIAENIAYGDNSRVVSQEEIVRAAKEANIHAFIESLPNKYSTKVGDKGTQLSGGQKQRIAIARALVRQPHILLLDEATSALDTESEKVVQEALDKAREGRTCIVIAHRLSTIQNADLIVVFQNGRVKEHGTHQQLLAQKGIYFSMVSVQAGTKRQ

ABCG2, sequence (Q9UNQ0 whole entry): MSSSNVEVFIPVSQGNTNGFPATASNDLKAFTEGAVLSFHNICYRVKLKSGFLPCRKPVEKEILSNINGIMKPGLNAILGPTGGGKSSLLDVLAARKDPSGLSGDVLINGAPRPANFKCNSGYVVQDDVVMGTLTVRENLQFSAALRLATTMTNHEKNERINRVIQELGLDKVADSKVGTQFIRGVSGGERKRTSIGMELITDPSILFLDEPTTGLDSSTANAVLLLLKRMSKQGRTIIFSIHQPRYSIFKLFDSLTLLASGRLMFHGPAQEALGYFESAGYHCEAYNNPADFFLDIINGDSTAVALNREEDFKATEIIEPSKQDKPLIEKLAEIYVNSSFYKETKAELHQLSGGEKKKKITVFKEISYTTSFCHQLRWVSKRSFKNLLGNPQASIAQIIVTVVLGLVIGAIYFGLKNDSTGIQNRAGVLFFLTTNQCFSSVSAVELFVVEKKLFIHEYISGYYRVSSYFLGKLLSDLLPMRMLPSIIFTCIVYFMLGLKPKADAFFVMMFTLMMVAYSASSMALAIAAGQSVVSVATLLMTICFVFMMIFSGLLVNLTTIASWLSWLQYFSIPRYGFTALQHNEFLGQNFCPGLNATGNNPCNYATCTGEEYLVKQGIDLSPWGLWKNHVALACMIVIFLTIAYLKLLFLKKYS
MRP1, sequence (P33527 whole entry): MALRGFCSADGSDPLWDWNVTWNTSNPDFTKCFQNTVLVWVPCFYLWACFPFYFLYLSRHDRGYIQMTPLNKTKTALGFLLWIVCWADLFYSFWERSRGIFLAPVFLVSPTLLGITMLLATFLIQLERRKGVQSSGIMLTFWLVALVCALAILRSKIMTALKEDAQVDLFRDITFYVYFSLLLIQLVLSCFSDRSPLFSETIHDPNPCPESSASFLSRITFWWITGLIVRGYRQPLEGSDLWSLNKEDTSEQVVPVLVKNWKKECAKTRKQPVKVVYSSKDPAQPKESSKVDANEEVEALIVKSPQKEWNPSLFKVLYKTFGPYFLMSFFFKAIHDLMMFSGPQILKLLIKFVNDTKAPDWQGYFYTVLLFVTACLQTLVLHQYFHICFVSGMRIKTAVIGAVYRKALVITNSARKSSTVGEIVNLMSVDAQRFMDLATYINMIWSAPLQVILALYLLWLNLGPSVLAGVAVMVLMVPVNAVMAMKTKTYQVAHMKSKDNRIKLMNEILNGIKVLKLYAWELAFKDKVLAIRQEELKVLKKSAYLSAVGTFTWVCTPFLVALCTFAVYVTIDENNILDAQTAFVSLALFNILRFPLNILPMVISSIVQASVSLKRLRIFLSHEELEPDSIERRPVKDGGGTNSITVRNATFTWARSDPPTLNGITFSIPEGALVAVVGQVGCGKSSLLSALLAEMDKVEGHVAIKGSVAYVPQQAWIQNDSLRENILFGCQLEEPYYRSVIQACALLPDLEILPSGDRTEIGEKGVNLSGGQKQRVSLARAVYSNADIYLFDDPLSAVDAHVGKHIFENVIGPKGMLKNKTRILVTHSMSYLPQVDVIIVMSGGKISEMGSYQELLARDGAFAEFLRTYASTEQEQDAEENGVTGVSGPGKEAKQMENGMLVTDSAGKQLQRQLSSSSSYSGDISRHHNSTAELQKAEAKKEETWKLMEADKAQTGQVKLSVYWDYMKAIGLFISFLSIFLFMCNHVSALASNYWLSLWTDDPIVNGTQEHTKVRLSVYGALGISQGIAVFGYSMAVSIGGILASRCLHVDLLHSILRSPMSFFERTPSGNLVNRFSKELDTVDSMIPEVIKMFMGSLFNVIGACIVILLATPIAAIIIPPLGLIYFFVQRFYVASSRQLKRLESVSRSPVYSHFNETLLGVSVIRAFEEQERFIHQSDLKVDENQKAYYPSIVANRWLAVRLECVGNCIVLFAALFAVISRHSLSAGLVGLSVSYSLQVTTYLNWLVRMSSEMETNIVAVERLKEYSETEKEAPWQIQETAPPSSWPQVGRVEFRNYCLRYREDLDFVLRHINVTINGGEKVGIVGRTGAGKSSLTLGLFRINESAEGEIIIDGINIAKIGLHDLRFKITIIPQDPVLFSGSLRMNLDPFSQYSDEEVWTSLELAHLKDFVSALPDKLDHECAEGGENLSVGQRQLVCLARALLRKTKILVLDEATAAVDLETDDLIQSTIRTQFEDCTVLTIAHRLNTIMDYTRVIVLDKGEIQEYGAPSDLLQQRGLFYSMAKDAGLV

Row | Compound | IC50 [1] [µM] | Pheophorbide a max activity, % of FTC response ([1]; 80 μM compound) [%] | Flow-MRP1, Fold Increase (MRP1 inhibition, calcein efflux: treated/control ratio) [2] [fold] | Flow-Pgp, Fold Increase (Pgp inhibition, rhodamine efflux: treated/control ratio) [3] [fold] | Pheophorbide a max activity, % of FTC response ([1]; 40 μM compound)
1 | botryllamide J | 26.9 | 70.5 | 2.54 | 0.58 | –
2 | botryllamide B | 11.2 | – | 3.26 | 1.95 | 84.3 (40 μM) %
3 | CO/C(=C\c1ccc(O)cc1)C(=O)N/C=C/c1ccc(OC)c(Br)c1 [Botryllamide D, botryllamide D] | 16.4 | 63.5 | 2.39 | 1.49 | –
4 | CO/C(=C\c1ccc(O)cc1)C(=O)N/C=C/c1ccc(OC)cc1 [Botryllamide E, botryllamide E] | 23.3 | 68.8 | 1.96 | 0.76 | –
5 | CO/C(=C\c1ccc(O)cc1)C(=O)N/C=C/c1ccc(O)cc1 [Botryllamide F, botryllamide F] | 16.7 | 81.0 | 3.33 | 0.59 | –
6 | CO/C(=C\c1ccc(O)cc1)C(=O)N/C=C/c1cc(Br)c(O)c(Br)c1 [Botryllamide G, botryllamide G] | 6.9 | – | 2.1 | 0.68 | 123.7 (40 μM) %
7 | CO/C(=C\c1ccc(O)cc1)C(=O)N/C=C/c1ccc(OC)cc1 [Botryllamide I, botryllamide I] | 41.4 | 71.3 | 3.14 | 0.8 | –
8 | CO/C(=C\c1ccc(O)cc1)C(=O)N/C=C/c1cc(Br)c(OC)c(Br)c1 [Botryllamide A, botryllamide A] | 33 | 89.7 | 4.5 | 17.63 | –
